According to patent US20060029548A1, “Methods of diagnosing, monitoring and treating pulmonary diseases” (priority 2004, published 2006):

Assays:
Format in all cases: in vivo
[1] = test system: human subjects (cough, throat irritation, sputum); experiment: Symptoms other than dyspnoea recorded after inhalation challenge; settings: all subjects
Text: (§1) The clinical study described in Examples 2-4 was randomized, double blind, crossover, and controlled. Each subject attended the laboratory on three occasions. Procedures on the initial screening visit included obtaining information about the study and a number of investigations in the following order: medical history, lung function, reversibility and skin prick testing. At visit 2 and 3, separated by 2-7 days, the subjects were subjected to either an ATP or AMP challenge in a randomized fashion such that, by the end of the study, each patient had been tested with both compounds. Before, immediately after, and 30 minutes after the challenge, lung function and Borg score for dyspnoea were determined, and symptoms other than dyspnoea were recorded.
(§2) For the tests described in Examples 2-4, ATP and AMP (Sigma, Gillingham, Dorset, England) were dissolved freshly in normal saline solution to produce a range of doubling concentrations from 0.227-929 umol/ml for ATP and from 0.138-1152 umol/ml for AMP and immediately used for bronchial challenge. The solutions were administered using a breath-activated dosimeter (Mefar, Bovezzo, Italy) with an output of 10 ul per inhalation [Prieto et al. (2003) Chest 123:993-997]. The subjects, while wearing a nose clip, inhaled (via a mouthpiece) five breaths of normal saline, followed by sequential doubling concentrations of either ATP or AMP from functional residual capacity to total lung capacity. FEV1 was measured from two minutes after the fifth inhalation of normal saline until there was a fall in FEV1 of ≧20% of its value recorded after saline inhalation or until maximal concentration of either ATP or AMP was inhaled. The provocative dose causing a 20% decrease in FEV1 (PD20) was calculated by interpolation of the logarithmic dose response curve.

[2] = test system: human subjects (perception of dyspnoea); experiment: Borg score for dyspnoea before and after inhalation challenge; set-up: key to ΔBorg (change in Borg score before and after challenge): Borg score after minus before challenge; 0–10 scale
Text: as §1
The modified Borg scale used to quantitate dyspnoea in the clinical study described in Examples 2-4 was a category scale in which words describing degrees of breathlessness were anchored to numbers between 0 and 10. The subjects were asked to select a number whose corresponding words most appropriately described their perception of breathlessness. The change in dyspnoea was expressed as ΔBorg, which was the difference in Borg score before and after the challenge [Rutgers et al. (2000) Eur. Respir. J. 16:486-490; Burdon et al. (1982) Am. Rev. Respir. Dis. 126:825-828]. Terms and associated numbers used in assessing Borg score were as follows: 0, “nothing at all”; 0.5, “very, very slight”; 1, “very slight”; 2, “slight”; 3, “moderate”; 4, “somewhat severe”; 5, “severe”; 7, “very severe”; 9, “very, very severe (almost maximal)”; and 10, “maximal” [Burdon et al. (1982)].
as §2

vagal C fiber = experiment: Vagal activation experiments in dogs: action potentials in vagal C fibers; settings: anesthetized dog, rapid bolus; simultaneous recording with RAR-containing fiber
Experimental: The experiments described in Example 5 were performed essentially as described in Pelleg et al. [(1996) J. Physiol. 490(1):265-275] and U.S. Pat. No. 5,874,420, both of which are incorporated herein by reference in their entirety. In brief, they were performed on anesthetized (sodium pentobarbitone, 30 mg kg^−1 plus 3 mg kg^−1 h^−1, intravenous) dogs artificially ventilated with room air using a respirator. Arterial blood pH, PO2, PCO2, body temperature were maintained as described in U.S. Pat. No. 5,874,420. A peripheral vein was cannulated for the administration of physiological saline solution and maintenance doses of anesthetic. Catheters were introduced via the femoral vein and left atrial appendage and positioned in the right atrium and left atrium for the administration of test solutions. The chest was opened by a longitudinal sternotomy. The right cervical vagosympathetic trunk was exposed by a midcervical longitudinal section of the skin and careful dissection of neck muscles and connective tissues. The edges of the cut skin were elevated and secured to create a trough which was filled with warm (about 37° C.) mineral oil. A section of the vagosympathetic trunk was placed on a small plate of black Perspex™ and fine branches were separated from the main bundle by careful dissection using microsurgical tools and a dissecting microscope (Model F212, Jenopik Jena, GmbH, Germany).
Extracellular neural action potentials were recorded using a custom-made bipolar electrode that contained two platinum-iridium wires (1.25 cm×0.0125 cm) connected to a high-impedence first-stage differential amplifier (model AC8331, CW, Inc., Ardmore, Pa.) via a shielded cable. The output of the first-stage amplifier was fed into a second-stage differential amplifier (model BMA-831/C, CWE, Inc.). Isolated fibers were laid on the pair of platinum-iridium wires. Vagal C fibers with chemosensitive endings have a sparse irregular discharge which is not associated with cardiac or respiratory cycles. […]
ATP (3 umole kg^−1) and capsaicin (10 ug kg^−1) were administered as a rapid bolus into the right atrium (5 ml test solution+5 ml physiological saline flush). α,βmATP and β,γmATP were given as one low dose only (0.75 umol kg^−1) to avoid systemic side effects. […] To exclude involvement of baroreceptors in the recorded neural activity, the latter was monitored before and after a bolus of nitroglycerine (1 mg; intravenous). […]

## Nc1ncnc2c1ncn2[C@@H]1O[C@H](COP(=O)(O)OP(=O)(O)OP(=O)(O)O)[C@@H](O)[C@H]1O [ATP, adenosine 5′-triphosphate]
[1]
  subjects who coughed after challenge: 90%
  subjects who had sputum after challenge: 28%
  subjects who had throat irritation after challenge: 75%
[2]; COPD
  ΔBorg (change in Borg score before and after challenge): 2.6
[2]; COPD patients
  Borg score after challenge (at PD20): 2.7
[2]; healthy smokers
  Borg score after challenge: 1.3
[2]; patients with asthma
  Borg score after challenge (at PD20): 3.3
  ΔBorg (change in Borg score before and after challenge): 3.2
[2]; smokers at risk
  Borg score after challenge: 1.9
Vagal C fiber
  effect on action potentials of C fibers: stimulated both the C fibers and RAR-containing fibers
